In the CheMixHub viscosity set:
Several values for one entry are separate records, joined by “and”; a condition that tells them apart may be missing. Equal values may be shown once.

Assay: xn = mol fraction of the nth substance listed

CC(C)=O + Cc1ccccc1
Details	viscosity
293.15 K, 101.32 kPa, x2 = 0.072	0.3349 mPa·s
293.15 K, 101.32 kPa, x2 = 0.148	0.3525 mPa·s
293.15 K, 101.32 kPa, x2 = 0.229	0.374 mPa·s
293.15 K, 101.32 kPa, x2 = 0.317	0.3966 mPa·s
293.15 K, 101.32 kPa, x2 = 0.409	0.42 mPa·s
293.15 K, 101.32 kPa, x2 = 0.509	0.4506 mPa·s
293.15 K, 101.32 kPa, x2 = 0.617	0.4775 mPa·s
293.15 K, 101.32 kPa, x2 = 0.735	0.5095 mPa·s
293.15 K, 101.32 kPa, x2 = 0.862	0.5472 mPa·s
298.15 K, 101 kPa, x1 = 0.0233	0.548 mPa·s
298.15 K, 101 kPa, x1 = 0.0652	0.537 mPa·s
298.15 K, 101 kPa, x1 = 0.1349	0.518 mPa·s
298.15 K, 101 kPa, x1 = 0.2009	0.499 mPa·s
298.15 K, 101 kPa, x1 = 0.301	0.475 mPa·s
298.15 K, 101 kPa, x1 = 0.3387	0.465 mPa·s
298.15 K, 101 kPa, x1 = 0.412	0.445 mPa·s
298.15 K, 101 kPa, x1 = 0.5133	0.419 mPa·s
298.15 K, 101 kPa, x1 = 0.515	0.418 mPa·s
298.15 K, 101 kPa, x1 = 0.6017	0.396 mPa·s
298.15 K, 101 kPa, x1 = 0.6968	0.372 mPa·s
298.15 K, 101 kPa, x1 = 0.7979	0.349 mPa·s
298.15 K, 101 kPa, x1 = 0.8969	0.325 mPa·s
298.15 K, 101 kPa, x2 = 0.0702	0.3418 mPa·s and 0.3418 mPa·s
298.15 K, 101 kPa, x2 = 0.1468	0.3759 mPa·s and 0.3759 mPa·s
298.15 K, 101 kPa, x2 = 0.2269	0.4076 mPa·s and 0.4076 mPa·s
298.15 K, 101 kPa, x2 = 0.3135	0.4383 mPa·s and 0.4383 mPa·s
298.15 K, 101 kPa, x2 = 0.4051	0.4662 mPa·s and 0.4662 mPa·s
298.15 K, 101 kPa, x2 = 0.5072	0.4893 mPa·s and 0.4893 mPa·s
298.15 K, 101 kPa, x2 = 0.616	0.5092 mPa·s and 0.5092 mPa·s
298.15 K, 101 kPa, x2 = 0.7355	0.5293 mPa·s and 0.5293 mPa·s
298.15 K, 101 kPa, x2 = 0.8629	0.5462 mPa·s and 0.5462 mPa·s
298.15 K, 101.32 kPa, x2 = 0.073	0.3172 mPa·s
298.15 K, 101.32 kPa, x2 = 0.148	0.3344 mPa·s
298.15 K, 101.32 kPa, x2 = 0.229	0.353 mPa·s
298.15 K, 101.32 kPa, x2 = 0.317	0.3764 mPa·s
298.15 K, 101.32 kPa, x2 = 0.41	0.3994 mPa·s
298.15 K, 101.32 kPa, x2 = 0.509	0.4236 mPa·s
298.15 K, 101.32 kPa, x2 = 0.618	0.4521 mPa·s
298.15 K, 101.32 kPa, x2 = 0.735	0.4807 mPa·s
298.15 K, 101.32 kPa, x2 = 0.862	0.5138 mPa·s
303.15 K, 101 kPa, x2 = 0.0702	0.3218 mPa·s and 0.3218 mPa·s
303.15 K, 101 kPa, x2 = 0.0929	0.3192 mPa·s
303.15 K, 101 kPa, x2 = 0.1468	0.3527 mPa·s and 0.3527 mPa·s
303.15 K, 101 kPa, x2 = 0.2269	0.381 mPa·s and 0.381 mPa·s
303.15 K, 101 kPa, x2 = 0.3135	0.4098 mPa·s and 0.4098 mPa·s
303.15 K, 101 kPa, x2 = 0.3674	0.4169 mPa·s
303.15 K, 101 kPa, x2 = 0.4051	0.4358 mPa·s and 0.4358 mPa·s
303.15 K, 101 kPa, x2 = 0.5072	0.4553 mPa·s and 0.4553 mPa·s
303.15 K, 101 kPa, x2 = 0.616	0.475 mPa·s and 0.475 mPa·s
303.15 K, 101 kPa, x2 = 0.7355	0.4947 mPa·s and 0.4947 mPa·s
303.15 K, 101 kPa, x2 = 0.8102	0.4984 mPa·s
303.15 K, 101 kPa, x2 = 0.8629	0.5144 mPa·s and 0.5144 mPa·s
308.15 K, 101 kPa, x2 = 0.0702	0.3021 mPa·s and 0.3021 mPa·s
308.15 K, 101 kPa, x2 = 0.1468	0.3267 mPa·s and 0.3267 mPa·s
308.15 K, 101 kPa, x2 = 0.2269	0.3517 mPa·s and 0.3517 mPa·s
308.15 K, 101 kPa, x2 = 0.3135	0.3785 mPa·s and 0.3785 mPa·s
308.15 K, 101 kPa, x2 = 0.4051	0.404 mPa·s and 0.404 mPa·s
308.15 K, 101 kPa, x2 = 0.5072	0.425 mPa·s and 0.425 mPa·s
308.15 K, 101 kPa, x2 = 0.616	0.4443 mPa·s and 0.4443 mPa·s
308.15 K, 101 kPa, x2 = 0.7355	0.4638 mPa·s and 0.4638 mPa·s
308.15 K, 101 kPa, x2 = 0.8629	0.4848 mPa·s and 0.4848 mPa·s
308.15 K, 101.32 kPa, x2 = 0.073	0.2891 mPa·s
308.15 K, 101.32 kPa, x2 = 0.149	0.3036 mPa·s
308.15 K, 101.32 kPa, x2 = 0.23	0.3204 mPa·s
308.15 K, 101.32 kPa, x2 = 0.318	0.3407 mPa·s
308.15 K, 101.32 kPa, x2 = 0.411	0.3615 mPa·s
308.15 K, 101.32 kPa, x2 = 0.51	0.3829 mPa·s
308.15 K, 101.32 kPa, x2 = 0.619	0.4072 mPa·s
308.15 K, 101.32 kPa, x2 = 0.736	0.4335 mPa·s
308.15 K, 101.32 kPa, x2 = 0.862	0.463 mPa·s
313.15 K, 101 kPa, x2 = 0.0929	0.2858 mPa·s
313.15 K, 101 kPa, x2 = 0.3674	0.3952 mPa·s
313.15 K, 101 kPa, x2 = 0.8102	0.4622 mPa·s
318.15 K, 101.32 kPa, x2 = 0.073	0.2628 mPa·s
318.15 K, 101.32 kPa, x2 = 0.149	0.2767 mPa·s
318.15 K, 101.32 kPa, x2 = 0.23	0.2923 mPa·s
318.15 K, 101.32 kPa, x2 = 0.319	0.3081 mPa·s
318.15 K, 101.32 kPa, x2 = 0.412	0.3264 mPa·s
318.15 K, 101.32 kPa, x2 = 0.511	0.347 mPa·s
318.15 K, 101.32 kPa, x2 = 0.61	0.367 mPa·s
318.15 K, 101.32 kPa, x2 = 0.737	0.3916 mPa·s
318.15 K, 101.32 kPa, x2 = 0.863	0.4162 mPa·s
323.15 K, 101 kPa, x2 = 0.0929	0.2564 mPa·s
323.15 K, 101 kPa, x2 = 0.3674	0.3538 mPa·s
323.15 K, 101 kPa, x2 = 0.8102	0.4467 mPa·s

COc1ccccc1 + CCCO
viscosity [mPa·s], 101 kPa
Details	x1 = 0.1207	x1 = 0.236	x1 = 0.3462	x1 = 0.4516	x1 = 0.5526	x1 = 0.6495	x1 = 0.7424	x1 = 0.8317	x1 = 0.9175
303 K	1.448	1.219	1.138	1.075	0.9286	0.8908	0.8219	0.8308	0.8695
313 K	1.176	1.046	0.9616	0.8924	0.7921	0.7847	0.7639	0.7523	0.7392
323 K	0.9186	0.8788	0.759	0.7338	0.6514	0.6115	0.6084	0.5967	0.598

C1CCOC1 + CCO
Details	viscosity [mPa·s]
298.15 K, 101 kPa, x1 = 0.4	0.6728

CCCc1ccccc1 + C1CCOC1
303.15 K, 101.33 kPa
Details	viscosity [mPa·s]
x2 = 0.1005	0.732
x2 = 0.199	0.709
x2 = 0.3031	0.682
x2 = 0.4019	0.656
x2 = 0.4983	0.63
x2 = 0.6024	0.596
x2 = 0.7022	0.561
x2 = 0.8014	0.525
x2 = 0.8964	0.485

CC(C)=O + OCCO
293.15 K, 101.33 kPa
Details	viscosity [mPa·s]
x2 = 0.1258	0.439
x2 = 0.2405	0.625
x2 = 0.2517	0.651
x2 = 0.3451	0.912
x2 = 0.3891	1.086
x2 = 0.5257	1.91
x2 = 0.6291	3.034
x2 = 0.6515	3.393
x2 = 0.7734	6.123
x2 = 0.8254	7.897
x2 = 0.8715	9.97
x2 = 0.921	13.18
